Assay results from paper PMC4608554 (Bioorganic & medicinal chemistry, 2015).
“And” between values parts separate entries of the source, which are not always exact repeats. Equal entries are not always repeated. “Also recorded” adds a separate entry of the source. Where two headings read alike, the source gives them in different places.

Columns and labels:
[1] = system: non-iron-overloaded, bile duct-cannulated rats; details: cited from earlier work
[2] = system: non-iron-overloaded, bile duct-cannulated rats; test: Chelator-induced iron clearance; format: in vivo; details: po, 300 µmol/kg
male Sprague-Dawley rats = test: 10-day toxicity trial of 11 in rats; format: in vivo, rat; details: 384 µmol/kg/day
[3] = Tissue distribution/metabolism of chelators in rats; format: in vivo, rat (male Sprague-Dawley); details: for concentration in kidney: rat kidney; for presence in heart: later time points (2-8 h) after 11 sc 300 µmol/kg
[4] = system: iron-overloaded Cebus apella monkeys; test: Chelator-induced iron clearance; format: in vivo; details: 75 µmol/kg, same animals po and sc
[5] = even when administered b.i.d.; cited from earlier work
[6] = rat liver, sc 300 µmol/kg, cited from earlier work; for fraction of parent polyether cleaved to 2 (from 5) or 3 (from 6): 2 h
patients = details: cited from earlier work
[7] = system: iron-overloaded Cebus apella monkeys; details: po, cited from earlier work
rats [8] = details: cited from earlier work
[9] = 2:1 complex with Fe(III); cited from earlier work
rats [10] = details: rat, cited from earlier work
[11] = rat heart, 0.5 h after 11 sc 300 µmol/kg
[12] = rat pancreas, 0.5 h after 11 sc 300 µmol/kg
[13] = rat plasma, 4 h after 11 sc 300 µmol/kg
[14] = rat liver, 0.5 h after 11 sc 300 µmol/kg
[15] = rat liver, 1 h after 11 sc 300 µmol/kg
[16] = rat heart, 1 h after 11 sc 300 µmol/kg
[17] = rat liver, 8 h after 11 sc 300 µmol/kg
[18] = rat pancreas, 1 h after 11 sc 300 µmol/kg
[19] = bile duct-cannulated rats, po, 150 µmol/kg
[20] = rat liver, 8 h after 8 sc 300 µmol/kg
[21] = rat plasma, 8 h after 8 sc 300 µmol/kg

Which time to deaths ([1]; 4'-butoxy analogue of 2) does the source give for CCCCOc1ccc(C2=N[C@@H](C(=O)O)CS2)c(O)c1 [(S)-2-(4-butoxy-2-hydroxyphenyl)-4,5-dihydro-4-thiazolecarboxylic acid] here?
The time to deaths was at most 24 h.

With C[C@]1(C(=O)O)CSC(c2ccc(OCCCCCCO)cc2O)=N1 [compound 11, (S)-4,5-dihydro-2-[2-hydroxy-4-(6-hydroxyhexyloxy)phenyl]-4-methyl-4-thiazolecarboxylic acid] as the compound, how does the “overt toxicity in rats” value ([2]; bile duct-cannulated rats) read?
The value was “did not present with any overt toxicity; also recorded: did not display any overt toxicity; also recorded: did not elicit any signs of overt toxicity”.

And the survival (male Sprague-Dawley rats; rat, po by gavage once daily for ten days)?
Its survival is “survived”.

And the “histopathology (25 tissues/rat)” value (male Sprague-Dawley rats; rat, po once daily x 10 d)?
The value was “could not identify any drug-related abnormalities”.

And the overall toxicity (male Sprague-Dawley rats; rodents, once daily for 10 days)?
The overall toxicity was “complete lack of toxicity”.

What about the concentration in heart [3, 11] of the same compound?
The concentration in heart was 26 nmol/g wet weight.

What about the concentration in kidney ([3]; 0.5 h after 11 sc 300 µmol/kg) of the same compound?
Its concentration in kidney is “trace amounts”.

And the presence in liver ([3]; rat liver, any of the time points (0.5-8 h) after 11 sc 300 µmol/kg)?
The presence in liver was “not found”.

What about the concentration in pancreas [3, 12] of the same compound?
The concentration in pancreas was under 5 nmol/g wet weight.

And the “share of the total (parent + metabolites)” value [3, 13]?
The value was “no longer detectable”.

What about the “conversion of alcohol 11 to metabolites 12-14” value ([3]; rats, 11 sc 300 µmol/kg) of the same compound?
The value was “Significant conversion; also recorded: quickly converted; also recorded: very quickly converted”.

Which “presence in cardiac tissue” value ([3]; rat heart, any of the time points after 11 sc 300 µmol/kg) does the source give for C[C@]1(C(=O)O)CSC(c2ccc(OCCCCCC(=O)O)cc2O)=N1 [compound 12, (S)-4,5-dihydro-2-[2-hydroxy-4-(5-carboxypentyloxy)phenyl]-4-methyl-4-thiazolecarboxylic acid] here?
The value was “not found”.

What about the concentration in kidney ([3]; 0.5 h after 11 sc 300 µmol/kg) of the same compound?
Its concentration in kidney is “found”.

And the concentration in kidney ([3]; 1 h after 11 sc 300 µmol/kg)?
The concentration in kidney was “found”.

And the presence in liver ([3]; rat liver, 2, 4, or 8 h after 11 sc 300 µmol/kg)?
The presence in liver was “not detected”.

What about the “share of the total drug (parent + metabolites)” value (“share of the total drug” for short) [3, 14] of the same compound?
Its value is 11%.

What about the “share of the total drug” value [3, 15] of the same compound?
Its value is 2%.

And the presence in pancreas ([3]; rat pancreas, any of the time points after 11 sc 300 µmol/kg)?
Its presence in pancreas is “not found”.

And the presence in plasma ([3]; rat plasma, 0.5-8 h after 11 sc 300 µmol/kg)?
The presence in plasma was “None”.

Which results are given for C[C@]1(C(=O)O)CSC(c2ccc(OCCCC(=O)O)cc2O)=N1 [compound 13, (S)-4,5-dihydro-2-[2-hydroxy-4-(3-carboxypropyloxy)phenyl]-4-methyl-4-thiazolecarboxylic acid]?
sc ICE vs po ICE in the primates (times higher) [4]: 3.4 times; concentration in heart [3, 11]: ~ 46 nmol/g wet weight; concentration in heart [3, 16]: ~ 46 nmol/g wet weight; presence in heart ([3]; rat heart): not found; concentration in kidney ([3]; 0.5 h after 11 sc 300 µmol/kg): ~ 300 nmol/g wet weight; concentration in kidney ([3]; 1 h after 11 sc 300 µmol/kg): ~ 300 nmol/g wet weight; concentration in kidney ([3]; 8 h after 11 sc 300 µmol/kg): not detectable; share of the total drug (parent + metabolites) [3, 14]: 71%; share of the total drug (parent + metabolites) [3, 15]: 73%; share of the total drug (parent + metabolites) ([3]; rat liver, 2 h after 11 sc 300 µmol/kg): 66%; share of the total drug (parent + metabolites) ([3]; rat liver, 4 h after 11 sc 300 µmol/kg): 70%; presence in liver [3, 17]: no 13 remained; concentration in pancreas [3, 12]: 19 nmol/g wet weight; concentration in pancreas [3, 18]: 23 nmol/g wet weight; share of the total (parent + metabolites) ([3]; rat plasma, 0.5 h after 11 sc 300 µmol/kg): 62%; share of the total (parent + metabolites) [3, 13]: 50%; share of the total plasma drug concentration ([3]; rat plasma, 8 h after 11 sc 300 µmol/kg): 65%

Which renal toxicity [5] does the source give for COCCOCCOCCOc1cccc(C2=N[C@@](C)(C(=O)O)CS2)c1O [compound 6, (S)-4,5-dihydro-2-[2-hydroxy-3-(3,6,9-trioxadecyloxy)phenyl]-4-methyl-4-thiazolecarboxylic acid] here?
Its renal toxicity is “no renal toxicity”.

What about the ICE [1, 19] of the same compound?
Its ICE is 18.7 ± 2.9%.

And the iron decorporated [1, 19]?
The iron decorporated was 0.782 ± 0.121 mg/kg.

And the “quantity of iron excreted” value ([1]; bile duct-cannulated rats, po, 300 µmol/kg)?
The value was 0.887 ± 0.367 mg/kg.

What about the “fraction of parent polyether cleaved to 2 (from 5) or 3 (from 6)” value [6] of the same compound?
The value was 2.6%.

For C[C@]1(C(=O)O)CSC(c2ccc(OCC(=O)O)cc2O)=N1 [compound 14, (S)-4,5-dihydro-2-[2-hydroxy-4-(carboxymethoxy)phenyl]-4-methyl-4-thiazolecarboxylic acid], which “sc ICE vs po ICE in the primates (times higher)” value [4] is on record?
Its value is 5.3 times.

And the concentration in heart [3, 11]?
The concentration in heart was 17 nmol/g wet weight.

And the concentration in heart [3, 16]?
Its concentration in heart is 23 nmol/g wet weight.

And the presence in heart ([3]; rat heart)?
Its presence in heart is “not found”.

And the concentration in kidney ([3]; 0.5 h after 11 sc 300 µmol/kg)?
Its concentration in kidney is 156 nmol/g wet weight.

And the concentration in kidney ([3]; 1 h after 11 sc 300 µmol/kg)?
The concentration in kidney was 201 nmol/g wet weight.

What about the concentration in kidney ([3]; 2 h after 11 sc 300 µmol/kg) of the same compound?
The concentration in kidney was 161 nmol/g wet weight.

What about the concentration in kidney ([3]; 8 h after 11 sc 300 µmol/kg) of the same compound?
Its concentration in kidney is 5 nmol/g wet weight.

And the “share of the total drug” value [3, 14]?
The value was 18%.

What about the “share of the total drug” value [3, 15] of the same compound?
Its value is 25%.

And the presence in liver [3, 17]?
The presence in liver was “trace amounts”.

What about the concentration in pancreas [3, 12] of the same compound?
The concentration in pancreas was “Trace amounts”.

And the concentration in pancreas [3, 18]?
The concentration in pancreas was “Trace amounts”.

What about the concentration in pancreas ([3]; rat pancreas, 2 h after 11 sc 300 µmol/kg) of the same compound?
Its concentration in pancreas is “Trace amounts”.

What about the “share of the total (parent + metabolites)” value [3, 13] of the same compound?
The value was 50%.

Which “overt toxicity in rats” value ([2]; bile duct-cannulated rats) does the source give for COCCCCCCOc1ccc(C2=N[C@@](C)(C(=O)O)CS2)c(O)c1 [compound 10, (S)-4,5-dihydro-2-[2-hydroxy-4-(6-methoxyhexyloxy)phenyl]-4-methyl-4-thiazolecarboxylic acid] here?
The value was “profoundly toxic; also recorded: very toxic”.

What about the “time of death of one of the animals post drug” value ([2]; bile duct-cannulated rats, remaining rodents euthanized at 24 h) of the same compound?
The value was ~ 22 h.

What about the “time of peak drug-induced iron excretion post drug” value ([2]; rat) of the same compound?
Its value is 6 h.

With C[C@]1(C(=O)O)CSC(c2ccc(O)cc2O)=N1 [compound 2, (S)-2-(2,4-dihydroxyphenyl)-4,5-dihydro-4-methyl-4-thiazolecarboxylic acid] as the compound, how does the tolerability in patients (patients; 5, 10, or 15 mg/kg/day once daily (s.i.d) for up to 12 weeks) read?
The tolerability in patients was “well tolerated”.

What about the “renal toxicity in patients (increases in BUN and SCr)” value (patients; b.i.d. 12.5 mg/kg (25 mg/kg/d), three patients after 4-5 weeks) of the same compound?
Its value is “unacceptable renal toxicity”.

For COCCOCCOCCOc1ccc(C2=N[C@@](C)(C(=O)O)CS2)c(O)c1 [compound 5, (S)-4,5-dihydro-2-[2-hydroxy-4-(3,6,9-trioxadecyloxy)phenyl]-4-methyl-4-thiazolecarboxylic acid], which renal toxicity [5] is on record?
Its renal toxicity is “no renal toxicity”.

What about the “fraction of parent polyether cleaved to 2 (from 5) or 3 (from 6)” value [6] of the same compound?
The value was 2%.

With C[C@]1(C(=O)O)CSC(c2ccc(OCCOCC(=O)O)cc2O)=N1 [compound 9, (S)-4,5-dihydro-2-[2-hydroxy-4-(4-carboxy-3-oxabutyloxy)phenyl]-4-methyl-4-thiazolecarboxylic acid] as the compound, how does the “share of the drug (parent + metabolite)” value ([3]; rat liver, 1 h after 8 sc 300 µmol/kg) read?
Its value is 59%.

What about the presence in liver [3, 20] of the same compound?
Its presence in liver is “no metabolite 9 remains”.

And the “share of drug converted to / in the form of metabolite” value ([3]; rat plasma, 0.5 h after 8 sc 300 µmol/kg)?
Its value is about 60%.

What about the “share of drug in the form of the metabolite” value ([3]; rat plasma, 2 h after 8 sc 300 µmol/kg) of the same compound?
Its value is 88%.

What about the presence in plasma [3, 21] of the same compound?
The presence in plasma was “Neither the parent 8 nor the metabolite 9 was found”.

And the “presence of carboxylic acid 9 in tissues after 7” value ([3]; rat tissues, 7 sc 300 µmol/kg)?
Its value is “not detected”.

With COc1ccc(C2=N[C@@](C)(C(=O)O)CS2)c(O)c1 [compound 4, (S)-4,5-dihydro-2-(2-hydroxy-4-methoxyphenyl)-4-methyl-4-thiazolecarboxylic acid] as the compound, how does the “fraction of parent demethylated to 2” value ([6]; 2 h post drug) read?
Its value is “about 30%”.

With C[C@]1(C(=O)O)CSC(c2ccc(OCCOCCO)cc2O)=N1 [compound 8, (S)-4,5-dihydro-2-[2-hydroxy-4-(5-hydroxy-3-oxapentyloxy)phenyl]-4-methyl-4-thiazolecarboxylic acid] as the compound, how does the “share of the drug (parent + metabolite)” value ([3]; rat liver, 0.5 h after 8 sc 300 µmol/kg) read?
Its value is 53%.

What about the presence in liver [3, 20] of the same compound?
The presence in liver was “very little”.

And the “share of total drug concentration” value ([3]; rat plasma, 0.5 h after 7 sc 300 µmol/kg)?
Its value is 5%.

And the presence in plasma [3, 21]?
Its presence in plasma is “Neither the parent 8 nor the metabolite 9 was found”.

For C[C@]1(C(=O)O)CSC(c2ncccc2O)=N1 [compound 1, (S)-4,5-dihydro-2-(3-hydroxy-2-pyridinyl)-4-methyl-4-thiazolecarboxylic acid], which “Primate ICE (%)” value ([7]; 150 µmol/kg, historical, ref 41 (1), ref 53 (2)) is on record?
The value was 16.1 ± 8.5%.

What about the “renal toxicity in rats” value (rats [8]) of the same compound?
Its value is “unacceptable renal toxicity”.

And the cumulative formation constant [9]?
Its cumulative formation constant is 4 × 10^29.

And the “Rodent ICE (%)” value ([1]; rat, po, 150 µmol/kg)?
Its value is 5.5 ± 3.2%.

With COCCOCCOc1ccc(C2=N[C@@](C)(C(=O)O)CS2)c(O)c1 [compound 7, (S)-4,5-dihydro-2-[2-hydroxy-4-(3,6-dioxaheptyloxy)phenyl]-4-methyl-4-thiazolecarboxylic acid] as the compound, how does the “Primate ICE (%)” value ([7]; 75 µmol/kg, as monosodium salt) read?
The value was 28.7 ± 12.4%.

And the “Primate ICE (%)” value ([7]; 75 µmol/kg, in capsules)?
The value was ~ 26% and 26.3 ± 9.9%.

What about the “cleavage of the terminal methyl of 7 to alcohol 8” value ([3]; rat tissues, 7 sc 300 µmol/kg) of the same compound?
Its value is “did occur”.

What about the “cleavage of 7 at the 4'-(HO) to 2” value ([3]; rats, 7 sc 300 µmol/kg) of the same compound?
Its value is “does not sustain metabolic cleavage”.

And the histopathology (rats [10]; extensive tissues)?
The histopathology was “no drug-related abnormalities were identified”.

What about the “urinary Kim-1 excretion” value (rats [10]; up to 28 d) of the same compound?
The value was “did not elicit any increases”.
